Results on 22 compounds are retold here after patent EP0537742B1, “Styrene derivatives” (Mitsubishi Chemical Corporation, priority 1991, dated 1993).

For data set [1], the target named is T1, human EGF (epidermal cell growth factor) receptor tyrosine kinase (Homo sapiens, UniProt P00533).
T1 construct: A431 cell membrane fraction, which was provided for the assay as the partially purified EGF receptor, enzyme source; endogenous in cells; host or cells: A431 (human squamous cell carcinoma), crude membrane fraction (27500 x g pellet)
The data set is described as follows: Tyrosine kinase activity inhibition (partially purified EGF receptor from A431 cell membrane fraction, RR-SRC peptide, 32P-ATP). It counts as biochemical. The conditions noted are these: for inhibition at 1 µM: read-out: Inhibitory Rate (%) in the presence of 1 µM; for inhibition at 10 µM: read-out: Inhibitory Rate (%) in the presence of 10 µM. On the procedure:
Detailed explanation of the assaying method will be given below.
A431 cells were cultivated in Dulbecco's modified Eagle's medium (DMEM) containing 10% fetal calf serum (FCS) at 37°C in a stream of 5% carbon dioxide, and the resultant cells were homogenized in a solution containing 10 mM N-2-hydroxyethylpiperazino-N'-2-ethanesulfonic acid (Hepes) buffer (pH 7.4), 0.25M sucrose and 0.1 mM EDTA and centrifuged at 1000 g for 5 minutes.
At that time the volume was 60 µl. The reaction was allowed to perform in ice for 30 minutes and stopped by adding 10 mg/ml bovine serum albumin (6 µl) and 20% trichloroacetic acid (25 µl). The mixture was allowed to stand in ice for 30 minutes.
Then the mixture was centrifuged at 5000 x g for 2 minutes, and the supernatant (40 µl) was sampled and adsorbed on P81 phosphocellulose paper. […] The count obtained was defined as "A". At the same time, counts of the reaction not containing the test material and the reaction not containing both the test material and EGF were assayed, and the resulted counts were defined as "B" and "C" respectively.

The subject of another data set is SKOV3 cell line. In words: Test on cancer cells in tissue culture (proliferation inhibition, MTT). It counts as cell-based. The conditions noted are these: Homo sapiens, SK-OV-3, 72 h. On the procedure:
Effect of the test material against the proliferation of cultivated cancer cells was examined with this SKOV3 cell line as follows:
SKOV3 cell was inoculated at a rate of 1 x 10^3 cell/well on a 96 well dish, and cultivated on a DMEM: F12 (1 : 1) medium containing 10% FCS and 0.1 mg/ml kanamycin at 37°C in a stream of 5% carbon dioxide for one day. Test material dissolved in DMSO was added to the medium (final concentration of DMSO was below 0.1%), which was cultivated for 3 days under the conditions mentioned above. Test material was replaced every 24 hours together with the medium.
Counting the number of living cells was effected by making colorimetric analysis at two wave length, 550 nm and 610 nm, in reference to the assaying method as described in Michael C. Alley et al., Cancer Research, 48, 589 (1988) using MTT reagent, and the number obtained was defined as "a".
At the same time, the count of the number of living cells obtained without adding the test material was assayed, and the number obtained was defined as "b".
Cell proliferation inhibitory rate was determined according to the following equation: Inhibitory Rate (%) = (b-a)/b x 100 [formula]

The nature of data set [2]: Toxicity test, intraperitoneal administration. It counts as in vivo, Mouse ddy (male). On the procedure:
Toxicity test for the compounds of the present invention was examined in the manner as shown below. Test compound Compound No. 4 Test animal Mouse ddy (male) 16 - 20 g
Test compound was suspended in a mixture of 0.25% carboxymethyl cellulose, physiological saline, and a small amount of Tween 80 to give a test solution. This solution was administered intraperitoneally at dose of 0 mg/kg (control), 500 mg/kg and 1000 mg/kg to the test animal. Change of the body weight was measured 3 days later.

Where [3] appears, read: Table 5: Proliferation Inhibitory Effect Against Cultivated Cells, 3 days, read-out: IC50.
Setting [4] is: Tyrosine Kinase Activity Inhibitory Effect, test material 10 µM.

Read-outs that look alike come from different tables or passages of the source.

T1 sequence (P00533 25-1210): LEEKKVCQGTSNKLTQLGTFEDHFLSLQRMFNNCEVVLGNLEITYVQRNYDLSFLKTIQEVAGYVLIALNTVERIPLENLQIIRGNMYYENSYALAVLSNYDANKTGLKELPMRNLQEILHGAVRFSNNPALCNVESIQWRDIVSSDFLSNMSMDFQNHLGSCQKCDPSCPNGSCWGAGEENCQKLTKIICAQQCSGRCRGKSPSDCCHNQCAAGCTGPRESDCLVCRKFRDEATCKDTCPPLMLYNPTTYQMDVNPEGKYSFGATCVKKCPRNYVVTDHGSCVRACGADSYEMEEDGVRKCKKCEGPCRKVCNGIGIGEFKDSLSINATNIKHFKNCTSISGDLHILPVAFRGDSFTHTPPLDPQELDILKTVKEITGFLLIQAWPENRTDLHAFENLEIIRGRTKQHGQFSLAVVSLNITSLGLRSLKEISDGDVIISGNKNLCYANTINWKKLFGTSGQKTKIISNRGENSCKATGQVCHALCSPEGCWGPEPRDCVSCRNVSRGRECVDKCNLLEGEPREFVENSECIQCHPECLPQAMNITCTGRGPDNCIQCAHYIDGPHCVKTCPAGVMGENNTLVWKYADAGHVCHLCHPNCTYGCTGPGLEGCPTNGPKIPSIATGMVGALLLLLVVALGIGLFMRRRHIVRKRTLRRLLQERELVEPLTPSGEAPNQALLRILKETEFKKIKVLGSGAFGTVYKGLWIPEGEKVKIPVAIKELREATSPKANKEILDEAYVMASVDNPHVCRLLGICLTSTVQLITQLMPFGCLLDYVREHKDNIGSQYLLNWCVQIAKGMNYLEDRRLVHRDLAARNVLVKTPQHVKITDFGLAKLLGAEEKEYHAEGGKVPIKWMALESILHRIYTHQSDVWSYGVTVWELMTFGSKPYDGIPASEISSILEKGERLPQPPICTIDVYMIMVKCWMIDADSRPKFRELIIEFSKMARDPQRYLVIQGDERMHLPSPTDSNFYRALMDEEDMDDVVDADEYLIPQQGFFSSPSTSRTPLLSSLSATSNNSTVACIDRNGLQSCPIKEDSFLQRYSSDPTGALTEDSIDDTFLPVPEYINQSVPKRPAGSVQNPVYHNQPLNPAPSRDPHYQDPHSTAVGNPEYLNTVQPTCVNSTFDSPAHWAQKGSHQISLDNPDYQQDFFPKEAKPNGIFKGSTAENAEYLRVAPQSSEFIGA
T1 sequence (P01133 971-1023 partner limits assumed): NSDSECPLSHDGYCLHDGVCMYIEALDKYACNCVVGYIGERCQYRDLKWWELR

One may read the IC50 as the concentration that inhibits the measured activity by half. Take `N#CC(=Cc1ccc(O)c(O)c1)C(=O)Nc1cccc(Cl)c1` [Compound No. 13, N-(3-chlorophenyl)-2-cyano-3-(3,4-dihydroxyphenyl) propenamide]: in data set [1], the inhibition at 1 µM is 46% and the inhibition at 10 µM came out at 100%. Besides, the IC50 in the data set with SKOV3 cell line (setting [3]) came out at 30 µM.

`N#CC(=Cc1ccc(O)c(O)c1)C(=O)Nc1ccc(Br)cc1` [Compound No. 10, N-(4-bromophenyl)-2-cyano-3-(3,4-dihydroxyphenyl) propenamide]: the inhibition at 10 µM in data set [1] (setting [4]) was found to be 47%.

As to `N#CC(=Cc1cc(O)c(O)c(C(F)(F)F)c1)C(=O)Nc1cccc(Cl)c1` [Compound No. 98, N-(3-chlorophenyl)-2-cyano-3-[3,4-dihydroxy-5-(trifluoromethyl)phenyl] propenamide], the IC50 in the data set on SKOV3 cell line (setting [3]) was 16 µM.

Consider `N#CC(=Cc1cc(O)c(O)c(Cl)c1)C(=O)Nc1ccccc1` [Compound No. 2, 2-cyano-3-(3-chloro-4,5-dihydroxyphenyl)propenanilide], for which the inhibition at 10 µM in data set [1] turned out to be 74%. Further, the IC50 in the data set on SKOV3 cell line (setting [3]) was 20.4 µM.

As to `N#CC(=Cc1cc(Br)c(O)c(Br)c1)C(=O)Nc1cccc(Cl)c1` [compound 100], the IC50 in the data set on SKOV3 cell line (setting [3]) was 19 µM.

Take `Cc1cccc(NC(=O)C(C#N)=Cc2ccc(O)c(O)c2)c1` [Compound No. 14, N-(3-methylphenyl)-2-cyano-3-(3,4-dihydroxyphenyl) propenamide]: the inhibition at 10 µM in data set [1] was 77%.

For `N#CC(=Cc1cc(O)c(O)c(Cl)c1)C(=O)Nc1cccc(Cl)c1` [Compound No. 4, N-(3-chlorophenyl)-2-cyano-3-(3-chloro-4,5-dihydroxyphenyl) propenamide], the dead case result in data set [2] (500 mg/kg intraperitoneally) and in data set [2] (1000 mg/kg intraperitoneally) was “No dead case was observed” each time. Besides, in the data set on SKOV3 cell line (setting [3]), the IC50 is 21.6 µM.

As to `N#CC(=Cc1cc(O)c(O)c(Br)c1Br)C(=O)Nc1cccc(Cl)c1` [Compound No. 9, N-(3-chlorophenyl)-2-cyano-3-(2,3-dibromo-4,5-dihydroxyphenyl) propenamide], the IC50 in the data set with SKOV3 cell line (setting [3]) is 17 µM.

Consider `N#CC(=Cc1cc(O)c(O)c(C#N)c1)C(=O)Nc1cccc(Cl)c1` [Compound No. 15, N-(3-chlorophenyl)-2-cyano-3-(3-cyano-4,5-dihydroxyphenyl) propenamide], for which the IC50 in the data set with SKOV3 cell line (setting [3]) turned out to be 34 µM.

Consider `O=CNC=Cc1ccc(O)c(O)c1` [Reference 3), reference compound], for which inhibition in data set [1] (Table 3, tyrosine kinase inhibition) was half-maximal at 12 µM (IC50).

As to `N#CC(=Cc1cc(O)c(O)cc1[N+](=O)[O-])C(=O)Nc1cccc(Cl)c1` [Compound No. 16, N-(3-chlorophenyl)-2-cyano-3-(4,5-dihydroxy-2-nitrophenyl) propenamide], in the data set with SKOV3 cell line (setting [3]), the IC50 turned out to be 24 µM.

In the case of `Cc1cc(C=C(C#N)C(=O)Nc2cccc(Cl)c2)cc(O)c1O` [compound 110], the IC50 in the data set with SKOV3 cell line (setting [3]) is 14 µM.

For `N#CC(=Cc1cc(O)c(O)c(Br)c1)C(=O)Nc1cccc(Cl)c1` [Compound No. 6, N-(3-chlorophenyl)-2-cyano-3-(3-bromo-4,5-dihydroxyphenyl) propenamide], the IC50 with SKOV3 cell line (setting [3]) is 21 µM.

As to `N#CC(=Cc1cc(O)c(O)c(F)c1)C(=O)Nc1cccc(Cl)c1` [Compound No. 8, N-(3-chlorophenyl)-2-cyano-3-(3-fluoro-4,5-dihydroxyphenyl) propenamide], in data set [1], the inhibition at 1 µM came out at 78%. The IC50 with SKOV3 cell line (setting [3]) is 23.4 µM.

In the case of `N#CC(=Cc1ccc(O)c(O)c1)C(=O)Nc1ccc(Cl)cc1` [Compound No. 12, N-(4-chlorophenyl)-2-cyano-3-(3,4-dihydroxyphenyl) propenamide], in data set [1] (setting [4]), the inhibition at 10 µM was 52%.

For `COc1cc(C=C(C#N)C(=O)Nc2cccc(Cl)c2)cc(F)c1O` [Compound No. 7, N-(3-chlorophenyl)-2-cyano-3-(3-fluoro-4-hydroxy-5-methoxyphenyl) propenamide], the inhibition at 1 µM in data set [1] amounted to 41%.

In the case of `N#CC(=Cc1ccc(O)c(O)c1)C(=O)Nc1cccc(Br)c1` [Compound No. 11, N-(3-bromophenyl)-2-cyano-3-(3,4-dihydroxyphenyl) propenamide], the inhibition at 10 µM in data set [1] (setting [4]) amounted to 77%.

For `N#CC(C(=O)Nc1ccccc1)=C(O)c1ccc(O)c(O)c1` [Compound No. 119, 2-cyano-3-hydroxy-3-(3,4-dihydroxyphenyl) propenanilide], the IC50 in the data set with SKOV3 cell line (setting [3]) amounted to 24 µM.

On to `CCOc1cc(C=C(C#N)C(N)=O)cc(CSc2ccccc2)c1O` [Reference 2), reference compound], for which the IC50 in the data set on SKOV3 cell line (setting [3]) came out at 78 µM.

Take `COc1cc(C=C(C#N)C(=O)Nc2ccccc2)cc(Br)c1O` [compound 105]: the IC50 with SKOV3 cell line (setting [3]) was 13 µM.

As for `COc1cc(C=C(C#N)C(=O)Nc2ccccc2)cc(Cl)c1O` [Compound No. 1, 2-cyano-3-(3-chloro-4-hydroxy-5-methoxyphenyl) propeneanilide], the inhibition at 10 µM in data set [1] was found to be 63%. Also, in the data set on SKOV3 cell line (setting [3]), the IC50 is 17.3 µM.

The compound `N#CC(=Cc1ccc(O)c(O)c1)C(=O)Nc1ccccc1` [Reference 1), reference compound] gave an IC50 in the data set with SKOV3 cell line of 35 µM.
